Experimental data taken from EP0314302A2, “Herbicidal o-carbomethoxy-sulfonylureas” (E.I. DU PONT DE NEMOURS AND COMPANY, priority 1987, dated 1989).

Tests used:
Common ragweed = assay: Test 11 windowsill flats, postemergence; assay type: in vivo, Ambrosia artemisiifolia; conditions: Postemergence 32 g/ha, 0.25% X-77 surfactant, scale 0-100
Method: (§1) Budded citrus seedlings were planted in 30-liter plastic pots which were also seeded with sandbur, guineagrass, narrowleaf panicum, common ragweed, yellow nutsedge, purple nutsedge and bindweed. Compound I was applied preemergence and postemergence to the weeds. Treatments were sprayed to simulate the trunk-to-trunk herbicide application method used in some citrus groves. The compound was also applied postemergence to weeds grown in windowsill flats. The flats were filled with planting medium and seeded with morningglory (Ipomoea spp.). purple nutsedge (Cyperus rotundus), pigweed (Amaranthus spp.), bindweed (Convolvulus spp.), narrowleaf panicum (Panicum maximum), common ragweed (Ambrosia artemisiifolia), sandbur (Cenchrus echinatus), itchgrass (Rottboellia exaltata), johnsongrass (Sorghum halepense), guineagrass (Panicum maximum), smooth crabgrass (Digitaria ischaemum), broadleaf signalgrass (Brachiaria platyphylla), bermudagrass (Cynodon dactylon), goosegrass (Eleusine indica), large crabgrass (Digitaria sanguinalis) and yellow nutsedge (Cyperus esculentus).
(§2) The compound was formulated and sprayed with 0.25% X-77 surfactant in water. Plants were visually rated 21 and 29 days after treatment and compared with appropriate controls. Injury ratings were based on the scale of 0 to 100, where 0 indicates no effect, 20 indicates minimum effect and 100 indicates complete control. […]

Wild radish = assay: Test 10 postemergence safety to crops and weed control; assay type: in vivo, Raphanus raphanistrum; conditions: 16 g/ha, scale 0-100
Method: (§3) The object of these tests was to evaluate the compound of this invention for postemergence safety to crops and weed control. Seedling and budded Macedine grapes were grown in 11.4-cm pots. Flax, green foxtail (Setaria viridis), "Morex" barley, wild oats (Avena fatua), "Era" wheat, annual ryegrass (Lolium multiflorum), wild radish (Raphanus raphanistrum), rape, sunflower, chickweed (Stellaria media) and wild buckwheat (Polygonum convolvulus) were seeded in windowsill pots.
(§4) The plants were sprayed postemergence with Compound I in a non-phytotoxic solvent. Plants were visually rated 15 and 27 days after treatment (DAT). Injury and weed control ratings were based on the scale of 0 to 100 where 0 = no effect, 20 minimal control and 100 = complete control.

Sugarcane = assay: Test 5 sugarcane injury and weed control, postemergence; assay type: in vivo, Saccharum spp.; conditions: scale 0-100
Method: Sugarcane (Saccharum spp.) cuttings which had been pre-sprouted were planted in 15-cm plastic pots. Narrowleaf panicum (Panicum maximum), large crabgrass (Digitaria sanguinalis), guineagrass (P. maximum) and itchgrass (Rottboellia exaltata) were seeded in individual 15-cm plastic pots.
The pots were treated postemergence when the plants had 3 to 4 leaves with 2 to 3 tillers with Compound I formulated in a non-phytotoxic carrier made up of acetone-humectant-water-surfactant (22:1:1:0.05 v/v). The degree of crop injury and weed control was visually rated 27 days after treatment (DAT). Plant injury ratings are based on the scale of 0 to 100 where 0 = no effect, 20 = minimal injury and 100 = complete control.

Large Crabgrass = assay: Test 11 windowsill flats, postemergence; assay type: in vivo, Digitaria sanguinalis; conditions: Postemergence 32 g/ha, 0.25% X-77 surfactant, scale 0-100
Method: as §1, §2

Smooth crabgrass = assay: Test 11 windowsill flats, postemergence; assay type: in vivo, Digitaria ischaemum; conditions: Postemergence 32 g/ha, 0.25% X-77 surfactant, scale 0-100
Method: as §1, §2

Sandbur [1] = assay: Test 11 citrus pots, preemergence to the weeds; assay type: in vivo, Cenchrus echinatus; conditions: Preemergence 32 g/ha; 0.25% X-77 surfactant; scale 0-100
Method: as §1, §2

Sandbur [2] = assay: Test 9 postemergence; assay type: in vivo, Cenchrus echinatus; conditions: scale 0-100
Method: (§5) Plastic windowsill pots containing planting medium were seeded with bahiagrass, bindweed (Convolvulus spp), guinea grass (Panicum maximum), large crabgrass (Digitaria sanguinalis) and pigweed (Amaranthus spp). Individual 15-cm plastic pots contained sandbur (Cenchrus echinatus), Mikania cordata, Boston fern (Nephrolepis exalata), quackgrass (Agropyron repens), elephantgrass (Pennisetum purpureum) and sowthistle (Sonchus spp) plants.
(§6) Plants were treated postemergence with Compound I formulated in a non-phytotoxic solvent. Plants were visually rated 22 days after treatment (DAT). Injury and weed control ratings were based on the scale of 0 to 100 where 0 = no effect, 20 = minimal control and 100 = complete control.

Wild buckwheat = assay: Test 10 postemergence safety to crops and weed control; assay type: in vivo, Polygonum convolvulus; conditions: 16 g/ha, scale 0-100
Method: as §3, §4

Boston fern = assay: Test 9 postemergence; assay type: in vivo, Nephrolepis exalata; conditions: scale 0-100
Method: as §5, §6

Era wheat = assay: Test 10 postemergence safety to crops and weed control; assay type: in vivo; conditions: 16 g/ha, scale 0-100
Method: as §3, §4

Rape = assay: as above; assay type: in vivo; conditions: 16 g/ha, scale 0-100
Method: as §3, §4

Flax = assay: as above; assay type: in vivo; conditions: 16 g/ha, scale 0-100
Method: as §3, §4

Morex barley = assay: as above; assay type: in vivo; conditions: 16 g/ha, scale 0-100
Method: as §3, §4

Sunflower = assay: as above; assay type: in vivo; conditions: 16 g/ha, scale 0-100
Method: as §3, §4

Bindweed = assay: Test 9 postemergence; assay type: in vivo, Convolvulus spp; conditions: 16 g/ha, scale 0-100
Method: as §5, §6

Dandelion = assay: Test 7 postemergence; assay type: in vivo, Taraxacum spp; conditions: scale 0-100
Method: Individual 11.4-cm plastic pots filled with planting medium were seeded with rape, wild radish (Raphanus raphanistruna). tansy mustard (Descurainia pinnata), ball mustard (Neslia paniculata), black mustard (Brassica nigra), yellow mustard, brown mustard, lentils, safflower, flax, sunflower, peanut, vetch, alfalfa, field bean, pea, violet (Viola spp), Kochia (Kochia spp), Russian thistle (Salsola spp), Matricaria spp, groundsel (Senecio spp), shepherdspurse (Capsella bursa-pastoris), nightshade (Solanum spp), sowthistle (Sonchus spp), sugar beet, wheat, "Bonanza" barley and "Morex" barley, Kentucky bluegrass (Poa pratensis), red clover (Trifolium pratense), dandelion (Taraxacum spp) and buckhorn plantain (Plantago lanceolata).
Plants were treated postemergence with the compound formulated with a non-phytotoxic carrier. Plants were visually rated 18 days after treatment (DAT). Response ratings were based on the scale of 0 to 100 where 0 = no effect, 20 = minimal injury and 100 = complete control.

Wild oats = assay: Test 10 postemergence safety to crops and weed control; assay type: in vivo, Avena fatua; conditions: 16 g/ha, scale 0-100
Method: as §3, §4

COC(=O)c1cccnc1S(=O)(=O)NC(=O)Nc1nc(OC)cc(OC)n1 [Compound I, 2-[[(4,6-dimethoxypyrimidin-2-yl)aminocarbonyl]aminosulfonyl]-3-pyridinecarboxylic acid, methyl ester]
Injury ratings (Common ragweed): 0
Plant Injury Rating 15 DAT (Wild radish): 100
Plant Injury Rating 27 DAT (Sugarcane; 8 g/ha): 10
Plant Injury Rating 27 DAT (Sugarcane; 16 g/ha): 20
Plant Injury Rating 27 DAT (Sugarcane; 32 g/ha): 20
Plant Injury Rating 27 DAT (Sugarcane; 64 g/ha): 30
Injury ratings (Large Crabgrass): 80
Injury ratings (Smooth crabgrass): 100
Injury ratings (Sandbur [1]): 100
Plant Injury Rating 22 DAT (Sandbur [2]; 8 g/ha): 100
Plant Injury Rating 22 DAT (Sandbur [2]; 16 g/ha): 100
Plant Injury Rating 22 DAT (Sandbur [2]; 32 g/ha): 100
Plant Injury Rating 15 DAT (Wild buckwheat): 100
Plant Injury Rating 22 DAT (Boston fern; 8 g/ha): 40
Plant Injury Rating 22 DAT (Boston fern; 16 g/ha): 50
Plant Injury Rating 22 DAT (Boston fern; 32 g/ha): 80
Plant Injury Rating 15 DAT (Era wheat): 100
Plant Injury Rating 15 DAT (Rape): 100
Plant Injury Rating 15 DAT (Flax): 100
Plant Injury Rating 15 DAT (Morex barley): 100
Plant Injury Rating 15 DAT (Sunflower): 100
Plant Injury Rating 22 DAT (Bindweed): 70
Plant Injury Rating 18 DAT (Dandelion; 16 g/ha): 100
Plant Injury Rating 18 DAT (Dandelion; 32 g/ha): 100
Plant Injury Rating 15 DAT (Wild oats): 100
